According to patent US20130035515A1, “LIGNOCELLULOSIC HYDROLYSATES AS FEEDSTOCKS FOR ISOBUTANOL FERMENTATION” (priority 2011, published 2013):

Experiments:
PNY1504 [1] = test: Fermentation of xylose to isobutanol by PNY1504 in defined medium with xylose isomerase, with or without antimycin A; type: cell-based, Saccharomyces cerevisiae
Protocol: (§1) Strain PNY1504 was pre-cultured in the defined medium SC-GE as described above, except that the medium was buffered to pH 6. Production cultures used the same SC medium, except either glucose or xylose was added to a final concentration of 35 g/L, and penicillin G (Sigma P3032) was added at 25 μg/ml.
Unless it is genetically engineered to do so, S. cerevisiae is unable to ferment xylose, but it is able to ferment xylulose. In order to test whether xylose is available for fermentation to isobutanol, it was converted to xylulose in situ by xylose isomerase (10 g/L; Sigma G4166) essentially as described in Lastick S. M., et al., Applied Microbiology and Biotechnology 30:574-579 (1989), Wang P. Y., et al., Biotechnology Letters 2:273-278 (1980) and Chandrakant P & Bisaria V S, Appl Microbiol Biotechnol 53:301-309 (2000).
(§2) Xylulose can be taken up by yeast and metabolized via the pentose phosphate pathway. […] Souto-Maior A M, et al., J Biotechnol. 143:119-23 (2009). Thus, in order to increase flux towards fermentative products, cultures were treated with the respiratory inhibitor antimycin A (1 μM; Sigma A8674).

PNY1504 [2] = test: Fermentation of glucose to isobutanol by PNY1504 in defined medium with or without antimycin A; type: cell-based, Saccharomyces cerevisiae; details: glucose 35 g/L
Protocol: as §1, §2

[3] = antimycin A-treated culture (1 μM)

Q: Which results are given for antimycin A?
A: Effect on biomass accumulation (PNY1504 [1]; antimycin A 1 μM): reduce biomass accumulation slightly; Effect on xylose consumption profile (PNY1504 [1]; antimycin A 1 μM): not significantly affected; Isobutanol production (PNY1504 [1]; antimycin A 1 μM, at 78 hours): 0.5 g/L; Isobutanol yield (PNY1504 [1]; in the presence of antimycin A): 0.04 g/g; Time in which glucose (hexose) was consumed (PNY1504 [2]; antimycin A 1 μM): ≤ 24 h; Isobutanol titer (PNY1504 [2]; [3]): ~3.3 g/L; Isobutanol yield (PNY1504 [2]; [3]): approximately 0.08 g·g^−1
